Patent US9695155B2, “Herbicidal substituted pyrimidinyloxy benzene compounds” (E. I. DU PONT DE NEMOURS AND COMPANY, priority 2013, dated 2017)

Columns and labels:
[1] = test system: foxtail, green; experiment: Test C postemergence; format: in vivo, Setaria viridis; conditions: for Plant response rating (0 to 100), Foxtail, Green: postemergence
In short: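 Visual injury score versus untreated controls, 0 = no effect, 100 = complete control, taken 13 to 15 days after treatment in the greenhouse. Pre-emergence pots held loam/sand; post-emergence plants grew in sphagnum peat/vermiculite mix and were sprayed at the 1- to 4-leaf stage.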

[2] = test system: Russian thistle; experiment: Test D postemergence; format: in vivo, Salsola kali
In short: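 Seeds sown in silt loam soil got preemergence sprays; plants in peat/vermiculite potting medium were sprayed postemergence at 2–18 cm (1- to 4-leaf stage). Chemicals were formulated in a non-phytotoxic solvent mixture with surfactant. After 7 to 21 days in a controlled environment, injury was rated visually versus controls, 0 (no effect) to 100 (complete control).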

[3] = test system: kochia; experiment: Test C preemergence; format: in vivo, Kochia scoparia; conditions: for Kochia plant response rating: preemergence, scale 0 (no effect) to 100 (complete control)
Excerpt: (§1) Seeds of plant species selected from blackgrass (Alopecurus myosuroides), Italian ryegrass (Lolium multiflorum), wheat, winter (winter wheat, Triticum aestivum), galium (catchweed bedstraw, Galium aparine), corn (Zea mays), large (Lg) crabgrass (Digitaria sanguinalis), giant foxtail (Setaria faberii), johnsongrass (Sorghum halepense), lambsquarters (Chenopodium album), morningglory (Ipomoea coccinea), yellow nutsedge (Cyperus esculentus), pigweed (Amaranthus retroflexus), ragweed (common ragweed, Ambrosia elatior), soybean (Glycine max), barnyardgrass (Echinochloa crus-galli), oilseed rape (Brassica napus), waterhemp (common waterhemp, Amaranthus rudis), kochia (Kochia scoparia), wild oat (Avena fatua), surinam grass (Brachiaria decumbens), foxtail, green (green foxtail, Setaria viridis), goosegrass (Eleusine indica), bromegrass, downy (downy bromegrass, Bromus tectorum), nightshade (eastern black nightshade, Solanum ptycanthum), cocklebur (common cocklebur, Xanthium strumarium), cupgrass, woolly (woolly cupgrass, Eriochloa villosa), bermudagrass (Cynodon dactylon), sunflower, (common oilseed sunflower, Helianthus annuus), Russian thistle (Salsola kali), and velvetleaf (Abutilon theophrasti) were planted into a blend of loam soil and sand and treated preemergence with test chemicals formulated in a non-phytotoxic solvent mixture which included a surfactant.
(§2) At the same time, plants selected from these crop and weed species and also barley, winter (winter barley, Hordeum vulgare), windgrass (Apera spica-venti), chickweed (common chickweed, Stellaria media), deadnettle (henbit deadnettle, Lamium amplexicaule), and canarygrass (littleseed canarygrass, Phalaris minor) were planted in pots containing Redi-Earth® planting medium (Scotts Company, 14111 Scottslawn Road, Marysville, Ohio 43041) comprising spaghnum peat moss, vermiculite, wetting agent and starter nutrients and treated with postemergence applications of test chemicals formulated in the same manner. Plants ranged in height from 2 to 18 cm (1- to 4-leaf stage) for postemergence treatments. Treated plants and controls were maintained in a greenhouse for 13 to 15 days, after which time all species were compared to controls and visually evaluated. Plant response ratings, summarized in Table C, are based on a scale of 0 to 100 where 0 is no effect and 100 is complete control. A dash (-) response means no test result.

[4] = test system: goosegrass; experiment: Test C postemergence; format: in vivo, Eleusine indica; conditions: for Plant response rating (0 to 100), Goosegrass: postemergence; for Plant response rating, Goosegrass: Postemergence, scale 0 to 100 (0 no effect, 100 complete control)
Excerpt: as §1, §2

[5] = test system: palmer pigweed; experiment: Test E postemergence; format: in vivo, Amaranthus palmeri; conditions: post-emergence, read-out: Plant response rating, Pigweed, Palmer
Excerpt: Seeds of plant species selected from corn (Zea mays), soybean (Glycine max), velvetleaf (Abutilon theophrasti), lambsquarters (Chenopodium album), wild poinsettia (Euphorbia heterophylla), palmer pigweed (Amaranthus palmeri), waterhemp (common waterhemp, Amaranthus rudis), surinam grass (Brachiaria decumbens), large (Lg) crabgrass (Digitaria sanguinalis), Brazilian crabgrass (Digitaria horizontalis), fall panicum (Panicum dichotomiflorum), giant foxtail (Setaria faberii), green foxtail (Setaria viridis), goosegrass (Eleusine indica), johnsongrass (Sorghum halepense), ragweed (common ragweed, Ambrosia elatior), barnyardgrass (Echinochloa crus-galli), sandbur (southern sandbur, Cenchrus echinatus), arrowleaf sida (Sida rhombifolia), Italian ryegrass (Lolium multiflorum), dayflower (Virginia (VA) dayflower, Commelina virginica), field bindweed (Convolvulus arvensis), morningglory (Ipomoea coccinea), nightshade (eastern black nightshade, Solanum ptycanthum), kochia (Kochia scoparia), yellow nutsedge (Cyperus esculentus), cocklebur (common cocklebur, Xanthium strumarium), smartweed (ladysthumb smartweed, and hairy beggarticks (Bidens pilosa), were planted into a silt loam soil and treated preemergence with test chemicals formulated in a non-phytotoxic solvent mixture which included a surfactant.
At the same time, plants from these crop and weed species and also horseweed (Canada horseweed, Conyza canadensis), waterhemp_RES1, (ALS & Triazine resistant common waterhemp, Amaranthus rudis), and waterhemp_RES2, (ALS & HPPD resistant common waterhemp, Amaranthus rudis) were planted in pots containing Redi-Earth® planting medium (Scotts Company, 14111 Scottslawn Road, Marysville, Ohio 43041) comprising spaghnum peat moss, vermiculite, wetting agent and starter nutrients were treated with postemergence applications of test chemicals formulated in the same manner. Plants ranged in height from 2 to 18 cm for postemergence treatments (1- to 4-leaf stage). Treated plants and controls were maintained in a greenhouse for 14 to 21 days, after which time all species were compared to controls and visually evaluated. Plant response ratings, summarized in Table E, are based on a scale of 0 to 100 where 0 is no effect and 100 is complete control. A dash (-) response means no test result.

[6] = test system: windgrass; experiment: Test C postemergence; format: in vivo, Apera spica-venti; conditions: for Plant response rating (0 to 100), Windgrass: postemergence; for Plant response rating, Windgrass: Postemergence, scale 0 to 100 (0 no effect, 100 complete control)
Excerpt: as §1, §2

## Clc1cnc(Oc2ccccc2-n2cc(Br)cn2)nc1 [Compound 7, 2-[2-(4-bromo-1H-pyrazol-1-yl)phenoxy]-5-chloropyrimidine]
[1]; 125 g ai/ha
  Plant response rating (0 to 100), Foxtail, Green: 50
[1]; 250 g ai/ha
  Plant response rating (0 to 100), Foxtail, Green: 98
[1]; Postemergence, 31 g ai/ha, scale 0 to 100 (0 no effect, 100 complete control), 13 to 15 days
  Plant response rating, Foxtail, Green: 0
[2]; 16 g ai/ha, scale 0-100
  Plant response rating, Russian Thistle: 0
[2]; 31 g ai/ha, scale 0 to 100 (0 no effect, 100 complete control)
  Plant response rating, Russian Thistle: 0
[2]; 62 g ai/ha, scale 0 to 100 (0 no effect, 100 complete control)
  Plant response rating, Russian Thistle: 30
[2]; 125 g ai/ha, scale 0 to 100 (0 no effect, 100 complete control)
  Plant response rating, Russian Thistle: 30
[2]; 250 g ai/ha, scale 0 to 100 (0 no effect, 100 complete control)
  Plant response rating, Russian Thistle: 70
[3]; 62 g ai/ha
  Kochia plant response rating: 95
[3]; 125 g ai/ha
  Kochia plant response rating: 100
[3]; 250 g ai/ha
  Kochia plant response rating: 100
[3]; Preemergence, 31 g ai/ha, scale 0 to 100, 0 no effect, 100 complete control
  Plant response rating, Kochia: 55
[4]; 125 g ai/ha
  Plant response rating (0 to 100), Goosegrass: 15
[4]; 250 g ai/ha
  Plant response rating (0 to 100), Goosegrass: 15
[4]; 31 g ai/ha, 13 to 15 days
  Plant response rating, Goosegrass: 0
[4]; 62 g ai/ha
  Plant response rating, Goosegrass: 5
[5]; Postemergence, 31 g ai/ha, scale 0 to 100
  pest or weed control at 31 g/ha: 50%
[5]; Postemergence, 62 g ai/ha, scale 0 to 100
  pest or weed control at 62 g/ha: 75%
[5]; Postemergence, 125 g ai/ha, scale 0 to 100
  pest or weed control at 125 g/ha: 85%
[5]; postemergence, 8 g ai/ha, scale 0 to 100, 0 no effect, 100 complete control
  pest or weed control at 8 g/ha: 40%
[5]; postemergence, 16 g ai/ha, scale 0 to 100, 0 no effect, 100 complete control
  pest or weed control at 16 g/ha: 60%
[6]; 125 g ai/ha
  Plant response rating (0 to 100), Windgrass: 55
[6]; 250 g ai/ha
  Plant response rating (0 to 100), Windgrass: 80
[6]; 31 g ai/ha, 13 to 15 days
  Plant response rating, Windgrass: 10
[6]; 62 g ai/ha
  Plant response rating, Windgrass: 55
